Measurements: patent publication US5622948A, “Pyrrole pyridazine and pyridazinone anti-inflammatory agents” (Syntex (U.S.A.) Inc., priority 1994, dated 1997)
Values joined by “and” are separate entries in the source; they are usually repeats but may differ in a detail not shown here. Equal entries are not always repeated. Where two headings read alike, the source gives them in different places.

What was measured:
COX II [1] = biological target: T1, COX II (Homo sapiens, UniProt P35354); test: PGE2 production in human adherent monocytes stimulated with LPS; type: cell-based; settings: EIA, read-out: COX II IC50, inhibition of PGE2 production
T1 sequence (P35354 18-604): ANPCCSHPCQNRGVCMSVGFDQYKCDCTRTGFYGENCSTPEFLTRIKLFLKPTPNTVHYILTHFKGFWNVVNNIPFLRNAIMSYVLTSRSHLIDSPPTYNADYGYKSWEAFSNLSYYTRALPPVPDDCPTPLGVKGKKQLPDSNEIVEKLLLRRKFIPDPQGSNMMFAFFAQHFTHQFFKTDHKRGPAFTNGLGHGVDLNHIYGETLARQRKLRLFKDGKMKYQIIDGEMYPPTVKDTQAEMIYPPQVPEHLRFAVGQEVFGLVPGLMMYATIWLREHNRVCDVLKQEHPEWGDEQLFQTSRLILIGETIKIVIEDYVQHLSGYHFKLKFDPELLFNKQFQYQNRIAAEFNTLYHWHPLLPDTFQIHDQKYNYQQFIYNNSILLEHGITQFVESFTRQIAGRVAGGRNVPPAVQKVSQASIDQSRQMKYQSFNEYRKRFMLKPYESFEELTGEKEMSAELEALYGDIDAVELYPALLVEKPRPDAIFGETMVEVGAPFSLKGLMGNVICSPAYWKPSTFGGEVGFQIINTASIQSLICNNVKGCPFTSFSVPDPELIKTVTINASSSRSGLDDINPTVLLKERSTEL
Description: (§1) A summary of activities of Compound (16) against COX I and COX II in cell-free enzyme preparations and whole cells is presented in Table 1. The following abbreviations are used: AA is arachidonic acid, IL-1 is interleukin 1, PMA is phorbol myristate acetate, A23187 is a calcium ionophore (Sigma), BSA is bovine serum albumin and LPS is a lipopolysaccharide (Sigma).
Human adherent monocytes
(§2) 30 min incubation with Compound (16)
18 hr stimulation with LPS
a) 10 min activation, A23187 + PMA
washing, transfer to fresh media
b) 30 min activation, A23187 + PMA
c) 10 min activation, 20 μM AA
d) 30 min activation, 20 μM AA
EIA determination of PGE2

COX I [2] = biological target: T2, COX I (Homo sapiens, UniProt P23219); test: thromboxane B2 production in washed human platelets; type: cell-based; design: A 2 Kb fragment containing the coding region of COX I; made in house; host or cells: Sf9 insect cells, baculovirus (cDNA from Oxford Biomedical Research); settings: EIA, read-out: COX I IC50, inhibition of thromboxane B2 production
T2 sequence (P23219 24-599): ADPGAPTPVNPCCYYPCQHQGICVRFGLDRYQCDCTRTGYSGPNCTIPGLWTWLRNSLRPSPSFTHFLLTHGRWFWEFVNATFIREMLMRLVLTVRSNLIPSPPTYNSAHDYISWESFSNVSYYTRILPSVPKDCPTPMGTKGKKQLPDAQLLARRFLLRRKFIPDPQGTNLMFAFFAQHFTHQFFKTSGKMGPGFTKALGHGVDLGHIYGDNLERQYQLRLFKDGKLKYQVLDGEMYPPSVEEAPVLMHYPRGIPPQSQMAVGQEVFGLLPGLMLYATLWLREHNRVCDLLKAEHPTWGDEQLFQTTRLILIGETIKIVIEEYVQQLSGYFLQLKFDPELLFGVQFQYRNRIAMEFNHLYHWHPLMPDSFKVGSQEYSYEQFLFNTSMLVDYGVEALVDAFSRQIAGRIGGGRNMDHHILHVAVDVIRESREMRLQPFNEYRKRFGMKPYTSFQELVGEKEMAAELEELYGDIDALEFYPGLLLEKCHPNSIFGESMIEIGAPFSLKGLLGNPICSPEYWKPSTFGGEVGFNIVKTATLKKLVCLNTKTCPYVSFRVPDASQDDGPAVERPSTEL
Description: as §1, §2
b) 10 min activation, 20 μM AA
(§3) EIA determination of TxB2

COX I [3] = biological target: T2, COX I; test: radiometric assay, COX I inhibition (human recombinant, baculovirus expressed, partially purified); type: biochemical; design: A 2 Kb fragment containing the coding region of COX I; made in house; host or cells: Sf9 insect cells, baculovirus (cDNA from Oxford Biomedical Research); settings: very low substrate concentration
[4] = two week range finding toxicity study in rats; type: in vivo, rat
Description: A two week range finding study in rats was carried out at daily doses of 10, 30, 100 and 300 mg/kg of Compound (16).

[5] = tested on: adjuvant-induced arthritis pain; test: adjuvant-induced arthritis pain model in the rat; type: in vivo; settings: preliminary test at 0.1, 1.0, 10 and 30 mg/kg, read-out: doses at which significant and prolonged analgesia is obtained
Description: Compound (16) was also evaluated using an adjuvant-induced arthritis pain model in the rat, in which pain is assessed by eliciting a vocal response upon squeezing or flexing an inflamed ankle joint.

[6] = Pharmacokinetics in rat and monkey; type: in vivo
From the text: The pharmacokinetics of Compound (16) was studied in rat and monkey after intravenous and oral administration in solution (ethanol/polyethylene glycol/water, 1/5/4) or SSV.

COX II [7] = biological target: T1, COX II; test: TxB2 production in human whole blood activated with lipopolysaccharide (COX II); type: cell-based; settings: 5 hr incubation with compound and 10 μg/ml LPS; RIA determination of TxB2; read-out: COX II IC50, inhibition of TxB2 production
COX I [8] = biological target: T3, COX I (Rattus norvegicus, UniProt Q63921); test: TxB2 production in rat whole blood activated with A23187; type: cell-based; settings: 15 min incubation; 30 min activation with A23187; EIA determination of TxB2; read-out: COX I IC50, inhibition of TxB2 production
T3 construct: Rat whole blood; from tissue; host or cells: rat whole blood
T3 sequence (Q63921 27-602): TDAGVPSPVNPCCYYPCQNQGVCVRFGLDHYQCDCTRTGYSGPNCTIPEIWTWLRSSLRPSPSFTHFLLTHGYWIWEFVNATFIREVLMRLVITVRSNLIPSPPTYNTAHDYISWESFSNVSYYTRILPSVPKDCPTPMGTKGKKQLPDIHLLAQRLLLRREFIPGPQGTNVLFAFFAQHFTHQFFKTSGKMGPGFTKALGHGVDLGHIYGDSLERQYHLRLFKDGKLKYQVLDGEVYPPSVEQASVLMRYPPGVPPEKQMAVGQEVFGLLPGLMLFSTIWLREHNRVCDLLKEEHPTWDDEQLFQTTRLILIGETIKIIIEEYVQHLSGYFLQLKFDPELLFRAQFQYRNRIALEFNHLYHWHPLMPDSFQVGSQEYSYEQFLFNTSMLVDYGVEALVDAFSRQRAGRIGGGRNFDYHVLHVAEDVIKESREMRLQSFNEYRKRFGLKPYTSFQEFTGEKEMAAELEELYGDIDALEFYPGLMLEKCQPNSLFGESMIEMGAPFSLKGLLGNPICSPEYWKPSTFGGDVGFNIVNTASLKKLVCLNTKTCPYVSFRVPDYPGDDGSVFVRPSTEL
Description: as §1
Rat whole blood 15 min incubation with Compound (16)
as §3

[9] = tested on: adjuvant-induced arthritis; test: adjuvant-induced arthritis in the rat; type: in vivo
[10] = 10, 30, 100 and 300 mg/kg daily, two weeks

Cc1cc(Cc2ccc(=O)[nH]n2)n(C)c1C(=O)c1ccc(Cl)cc1 [Compound 16, 6-[1,4-dimethyl-5-(4chloro-benzoyl)-1H-pyrrol-2-ylmethyl]-2H-pyridazin-3-one]
IC50 (COX II [1]; 30 min incubation; a) 10 min activation, A23187 + PMA): 0.2 µM
IC50 (COX II [1]; 30 min incubation; b) 30 min activation, A23187 + PMA): < 0.1 µM
IC50 (COX II [1]; 30 min incubation; c) 10 min activation, 20 μM AA): 2.8 µM
IC50 (COX II [1]; 30 min incubation; d) 30 min activation, 20 μM AA): 0.54 µM
IC50 (COX I [2]; 30 min incubation; a) 10 min activation, A23187 (calcium ionophore)): 2.3 µM
IC50 (COX I [2]; 30 min incubation; b) 10 min activation, 20 μM AA): > 100 µM
type of inhibition of COX I (COX I [3]): weak, competitive, non-time dependent inhibition
clinical chemistry [4, 10]: No clinical chemistry abnormalities were detected
clinical signs [4, 10]: no adverse clinical signs were noted
gross necropsy findings [4, 10]: no drug-related gross necropsy findings
histopathological findings [4, 10]: no histopathological findings
lesions in the stomach or intestines [4, 10]: no lesions were noted in the stomach or intestines
intestinal lesions in toxicology range-finding study ([4]; up to 300 mg/kg/day for 14 days): no intestinal lesions were observed
minimal effective dose [5]: ≥ 10 mg/kg
dose proportionality ([6]; 1-300 mg/kg): exhibited dose proportionality over a broad range of doses
half-life ([6]; in vivo, after intravenous dosing): 2 to 3 h
bioavailability ([6]; in vivo, rats and monkeys, oral): 40 to 80%
IC50 (COX II [7]): 4.7 µM and 4.56 µM
IC50 (COX I [8]): 6 µM and 5 µM and 4 µM
ED40 ([9]; Rattus norvegicus, po, 408 h, based on the three assays): 3.2 ± 2.6 mg/kg
inhibition of adjuvant-induced arthritis ([9]; first test, 2 mg/kg/day, oral bid 17 days): 31%
inhibition of adjuvant-induced arthritis ([9]; first test, 5 mg/kg/day, oral bid 17 days): 66%
inhibition of adjuvant-induced arthritis ([9]; second test, 2 mg/kg/day): 43%
inhibition of adjuvant-induced arthritis ([9]; second test, 5 mg/kg/day): 48%
inhibition of adjuvant-induced arthritis ([9]; second test, 10 mg/kg/day): 52%
maximum inhibition of adjuvant-induced arthritis ([9]; third test, 100 mg/kg): 80%
